Assay results: patent US8143025B2, “Antibodies against vascular endothelial growth factor receptor-1” (ImClone LLC, priority 2004, dated 2012)
“Also recorded” adds a separate entry of the source.

Legend:
Akt = Akt phosphorylation Western blot, BT474 cells; format: cell-based, human; conditions: BT474 breast cancer cells, FIG. 15
Description: (§1) Autophosphorylation of the VEGFR-I induced by its ligands and resulting activation of a classical MAPK, extracellular signal-regulated protein kinases 1Z2 (ERK1Z2) and the PBK/Atk downstrean signaling pathways mediate cellular biological responses such as proliferation, motility, survival, and differentiation. The ability of an anti-VEGFR-1 antibody to inhibit phosphorylation of VEGFR-I and activation of ERK1 Z2 and the Akt kinases downstream signaling were determined by using the PAE-VEGFR-I transfectant and BT474 breast carcinoma cells.
For evaluation of MAPK and Akt phosphorylation, BT474 cells were seeded at a density of 5×10^5/well in 12 well plates in serum-free conditions for 18 hours. Cells were treated at 37° C. with anti-VEGFR-1 antibody clone 18F1 or isotype control for 1 hour and then incubated with 50 ng/ml of VEGF or 100 ng/ml of PlGF for 5-10 minutes. Cell lysis, protein isolation and electroblotting were performed. Membranes were incubated with antibodies against phosphorylated p44/p42 MAP kinases (Thr202/Tyr204, Santa Cruz Biotechnology, Santa Cruz, Calif.) or phosphorylated Akt (Ser473, Cell Signaling Technology, Beverly, Mass.), at a concentration of 1 μg/ml, followed by incubation with a secondary IgG-HRP (1:5000). […]

GEO xenograft = assay: GEO colon cancer xenograft; format: in vivo, mouse; conditions: monotherapy, FIG. 26C
Description: (§2) Female athymic nu/nu mice, 6-8 weeks of age, were injected subcutaneously on the lateral dorsal surface with 0.4 mL volume of a suspension containing a human tumor cell line in media, diluted 1:1 with MATRIGEL™ (BD Biosciences). The cell lines used in xenograft models, with the cell doses indicated in parenthesis (10^6 cells/mouse), were: human colon carcinoma cell lines DLD-I (5), GEO (5) and HT-29 (5); human breast carcinoma cell lines DU4475 (2), MDA-MB-231 (5), MDA-MB-435 (5), and BT474 (5). When tumors reached approximately 200-300 mm^3, mice were randomized by tumor size and divided into treatment groups. Tumor growth was evaluated approximately twice weekly, with tumor volume calculated as π/6* (Length*Width^2), where Length=longest diameter and Width=diameter perpendicular to Length. Tumor dimensions were measured with calipers. T/C % was calculated as 100*(Final Treatment Tumor Volume/Initial Treatment Tumor Volume)/(Final Control Tumor Volume/Initial Control Tumor Volume).
(§3) 18F1 was diluted in 0.9% USP saline (Braun) or phosphate buffered saline (PBS) and administered intraperitoneally in a volume of 0.5 mL per mouse. The effect of treatment on tumor growth was analyzed using repeated measures analysis of variance (RM ANOVA), p<0.05 was considered significant.

[1] = tested on: ERK1/2 downstream signaling; assay: ERK1/2 activation Western blot, PAE-VEGFR-I cells; format: cell-based; conditions: PAE-VEGFR-I transfectant cells, FIGS. 12-14
Description: as §1
PAE-VEGFR-I and BT474 cells were seeded at a density of 5×10^5Zwell in […] plates and cultured in serum-free medium for 18-48 hours. After replacing the culture medium, the cells were treated at 37° C. with anti-VEGFR-I antibody clones 6F9, 15F1 1, and 18F1 or isotype control for 1 hour and then incubated with 50 ng/ml of VEGF or 100 ng/ml of PlGF for 10 minutes. […] Western blot of phosphorylated VEGFR-I was detected using […] antibody (PY-20, Santa Cruz Biotechnology, Santa Cruz, Calif.). Proteins were detected using and […] chemiluminescence system (ECL)(Amersham Pharmacia Biotech, Piscataway, N.J.), and quantified by densitometry using NIH Image (National Institute of Mental Health, Bethesda, Md.). […]

DLD-I xenograft = assay: DLD-I colon cancer xenograft; format: in vivo, mouse; conditions: monotherapy, FIG. 26B
Description: as §2, §3

[2] = target: T1, DU4475 human breast carcinoma cells (Homo sapiens, UniProt P17948); assay: Flow cytometry analysis, DU4475 cells; format: binding; conditions: FIG. 8B
T1 construct: host or cells: DU4475 human breast carcinoma cells
T1 sequence (P17948 27-1338): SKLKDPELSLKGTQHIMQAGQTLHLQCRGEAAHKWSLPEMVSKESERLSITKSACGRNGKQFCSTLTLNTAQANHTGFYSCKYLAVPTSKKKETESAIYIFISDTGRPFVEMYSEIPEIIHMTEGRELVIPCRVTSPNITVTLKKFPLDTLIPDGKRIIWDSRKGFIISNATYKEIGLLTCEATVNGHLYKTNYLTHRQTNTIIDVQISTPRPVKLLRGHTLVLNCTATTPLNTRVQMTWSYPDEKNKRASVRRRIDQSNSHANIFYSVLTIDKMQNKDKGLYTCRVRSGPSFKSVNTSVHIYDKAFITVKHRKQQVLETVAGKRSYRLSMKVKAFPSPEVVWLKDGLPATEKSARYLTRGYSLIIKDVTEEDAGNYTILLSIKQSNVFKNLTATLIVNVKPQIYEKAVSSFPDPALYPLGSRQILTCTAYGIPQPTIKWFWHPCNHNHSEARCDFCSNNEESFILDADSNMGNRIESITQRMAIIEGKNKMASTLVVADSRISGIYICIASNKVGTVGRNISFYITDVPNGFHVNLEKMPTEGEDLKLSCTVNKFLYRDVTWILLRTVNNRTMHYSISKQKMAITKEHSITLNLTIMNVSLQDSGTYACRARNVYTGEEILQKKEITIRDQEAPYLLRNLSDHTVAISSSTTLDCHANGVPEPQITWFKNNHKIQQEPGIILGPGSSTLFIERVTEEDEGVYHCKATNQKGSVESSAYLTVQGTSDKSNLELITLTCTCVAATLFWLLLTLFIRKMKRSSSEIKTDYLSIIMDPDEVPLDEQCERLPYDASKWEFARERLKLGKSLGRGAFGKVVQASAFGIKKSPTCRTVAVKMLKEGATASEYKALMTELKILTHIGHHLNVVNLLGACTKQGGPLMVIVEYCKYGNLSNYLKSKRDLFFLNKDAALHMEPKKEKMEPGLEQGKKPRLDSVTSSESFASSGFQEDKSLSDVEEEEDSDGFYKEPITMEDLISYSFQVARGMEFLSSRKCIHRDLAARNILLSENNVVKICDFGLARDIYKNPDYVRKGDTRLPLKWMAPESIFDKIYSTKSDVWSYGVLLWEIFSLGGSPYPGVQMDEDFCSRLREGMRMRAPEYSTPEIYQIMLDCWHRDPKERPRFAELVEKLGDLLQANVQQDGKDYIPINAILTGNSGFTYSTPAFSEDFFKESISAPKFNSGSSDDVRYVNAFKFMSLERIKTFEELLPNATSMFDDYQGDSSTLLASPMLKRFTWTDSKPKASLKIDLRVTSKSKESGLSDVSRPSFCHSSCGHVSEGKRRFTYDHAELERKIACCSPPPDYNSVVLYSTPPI
Description: Aliquots of 10^6PAE-VEGFR-I cells were harvested from subconfluent cultures and incubated with anti-VEGFR-I antibody clones 6F9, 13G12, F11, and 18F1 in PBS with 1% bovine serum albumin (BSA) and 0.02% sodium azide (staining buffer) for one hour on ice. Aliquots of 10^6DU4475 human breast carcinoma cells were harvested from subconfluent cultures and incubated with anti-VEGFR-1 antibody clone 18F1 in PBS with 1% bovine serum albumin (BSA) and 0.02% sodium azide (staining buffer) for one hour on ice. A matched IgG isotype (Jackson ImmunoResearch, West Grove, Pa.) was used as a negative control. Cells were washed twice with flow buffer and then incubated with a fluorescein isothiocyanate (FITC)-labeled goat anti-human IgG antibody (BioSource International, Camarillo, Calif.) in staining buffer for 30 minutes on ice. Cells were washed as above and analyzed on an Epics XL flow cytometer (Beckman-Coulter, Hialeah, Fla.). Dead cells and debris were eliminated from the analysis on the basis of forward and sideways light scatter. The mean fluorescent intensity units (MFRJ) were calculated as the mean log fluorescence multiplied by the percentage of positive population.

HT-29 cells = assay: Migration through membrane insert; format: cell-based, human; conditions: 66 nM antibody, 10 ng/mL VEGF-A or 50 ng/mL VEGF-B, 48 hours, p<0.05, FIG. 23
Description: HT-29 cells (2.5×1 10^4) or SW480 cells (1.5×1 10^4) were incubated in medium containing 1% FBS with the anti-VEGFR-1 antibody 18F1 (66 nM) in the upper surface of a 24 well MATRIGEL™ coated (HT-29) or uncoated (SW480) 8.0-μm pore size membrane insert (Becton Dickinson Labware, Bedford, Mass.). The inserts were placed into lower chambers containing 10 ng/mL VEGF-A (R&D Systems) or 50 ng/mL VEGF-B (R&D Systems) for 48 hours. Cells remaining in the top chamber of the inserts were removed with a cotton swab. Cells migrating to the underside of the inserts were stained with Diff-Quik (Harleco, Gibbstown, N.J.) and counted in ten random fields at 100× magnification. Statistical analysis was performed using InStat Statistical Software (V2.03, GraphPad Software, San Diego, Calif.).

18F1: human anti-VEGFR-1 monoclonal antibody clone; VL SEQ ID NO: 16, VH SEQ ID NO: 20 [Clone 18F1]
PlGF or VEGF-stimulated phosphorylation of Akt (Akt): significantly blocked
antitumor effect against GEO colon cancer xenografts (GEO xenograft): significant antitumor effect
PlGF and VEGF induced activation of ERK1/2 downstream signaling [1]: dramatically inhibited; also recorded: inhibition
antitumor effect against DLD-I colon cancer xenografts (DLD-I xenograft): significant antitumor effect
binding reactivity with DU4475 human breast carcinoma [2]: binding reactivity
VEGFR-I ligand induced migration (HT-29 cells): completely blocked
